Where two headings read alike, the source gives them in different places.
Columns and labels:
Format in all cases: cell-based
Chlorella vulgaris [1] = system: Chlorella vulgaris
Description: The algae concentration was 5×10^6 cells/mL (100 μL of algae within 2 mL of aqueous solution (i.e. distilled water)) containing the substance to detect at indicated concentrations. For each substances, 5 concentrations in triplicates were tested. The TOXSTAT™ software was used to calculate from inhibition values and standard deviations obtained, the maximum concentration without observable effect and the minimal concentration with observable effects. The threshold was calculated with the following formula: (maximum concentration without observable effect x minimal concentration with observable effects)^1/2 (See Table 2 below). The temperature was controlled by a thermostatic bath.
(§1) The detection threshold was obtained with the geometric mean. It was calculated with the following formula: Detection threshold=(CSEO×CMEO)^1/2 where
(§2) CMEO=minimal concentration resulting in a detectable inhibition of the algae efficacy.
(§3) CSEO and CMEO were estimated by a variance analysis ANNOVA™ followed by a Dunnett multiple comparison by comparing the mean efficacy of each tested concentration with the control mean. Calculations were performed with TOXSTAT™ (Version 3.5).

Chlorella vulgaris [2] = conditions: for Inhibition: 0.5 ppm
Description: (§4) A Chlorella vulgaris culture was prepared as described in Example 1 above. As indicated in Example 1, the algae were reactivated before testing under ambient light and at room temperature during 90 minutes.
The formulation was then incubated under ambient light at 35° C. and at neutral pH with cadmium, copper, chromium, zinc, nickel, or lead, at indicated concentrations at incubation times varying between 15 minutes and 120 minutes. (FIGS. 9 to 12). The formulations were tested without additives or with 1 ppm cadmium, 0.1 ppm copper or 0.25 ppm copper as additive. The cellular concentration was 2.5×10^6 cells/mL (50 μL of algae within 2 mL of metal containing aqueous solution (i.e. distilled water)). Testing was performed in triplicates. The fluorescence emitted by each formulation was then measured with Luminotox™, a fluorometer that measures photosynthetic activity.

Chlorella vulgaris [3] = experiment: Stability of F2 fluorescence of Chlorella vulgaris incubated with additives
Description: F2 fluorescence levels produced by Chlorella vulgaris prepared as described in Example 1 above was measured after incubation with additives tested above, namely cadmium (0.5 ppm), cadmium (1 ppm), copper (0.1 ppm) and copper (0.25 ppm). As may be seen in FIG. 8, F2 fluorescence was stable after up to 120 minutes of incubation for each of these additives.

Chlorella vulgaris [4] = experiment: Inhibition of fluorescence emission of Chlorella vulgaris incubated at 35° C.; conditions: 15 minutes
Description: The present invention also concerns a method for ammonia nitrogen detection comprising changing algal cell permeability. This compound is detected at 100 ppm at neutral pH but the increment of pH up to 11 decreases the threshold to 1 ppm. Algal permeability can also be modified by increasing the incubation temperature of the assay. For example, fluorescence emission is inhibited in 15 minutes by copper ions, tetracycline and progesterone if Chlorella vulgaris is incubated at 35° C., while at room temperature the detection of these compounds in 15 minutes was possible when these compounds are present at higher concentrations. Chlorella vulgaris is a freshwater alga and is used for freshwater monitoring while Dunaliella tertiolecta is used of for marine water monitoring.

Dunaliella tertiolecta [5] = conditions: 15 min. green light exposition at room temperature
Description: as §1, §2, §3
(§5) A Dunaliella tertiolecta culture was prepared as described in Example 2 above. As indicated in Example 2, the algae were reactivated before testing under ambient light and at room temperature during 45 minutes.
The algae formulations were then incubated for 15 minutes with water containing one of the various contaminants listed in Table 2 below at neutral pH under green light and at room temperature. The algae concentration was 350 000 cells/mL (500 μL of algae within 2 mL of aqueous solution (i.e. distilled water) containing substance to detect at indicated concentrations). For each substances, 5 concentrations in triplicates were tested. The TOXSTAT™ software was used to calculate from inhibition values and standard deviations obtained, the maximum concentration without observable effect and the minimal concentration with observable effects (See Table 2 below). The temperature was controlled by a thermostatic bath. Tests were performed in triplicates. The fluorescence emitted by each formulation was then measured with Luminotox™, a fluorometer that measures photosynthetic activity and detection threshold determined as described in the Example above.

Chlorella vulgaris [6] = experiment: Detection of lead with Chlorella vulgaris with single additives or additive mixtures
Description: as §4
The formulation was then incubated under ambient light at 35° C. and at neutral pH with lead, at indicated concentrations and at incubation times varying between 15 minutes and 120 minutes (FIGS. 13 to 16). The formulations were tested with or without additives used as single additives (Cd 1 ppm, Cu 0.1 ppm and Cu 0.25 ppm) or mixes of additives (Cu 0.1 ppm+Cd 0.5 ppm; Cu 0.1 ppm+Cd 1 ppm; Cu 0.25 ppm+Cd 1 ppm). The cellular concentration was 2.5×10^6 cells/mL (50 μL of algae within 2 mL of lead containing aqueous solution (i.e. distilled water) with or without additives). Testing was performed in triplicates. The fluorescence emitted by each formulation was then measured with Luminotox™ a fluorometer that measures photosynthetic activity.

Anabaena sp. = experiment: Detection of bioactive molecules with Anabaena sp.: inhibition of photosynthetic fluorescence (Luminotox); conditions: 1 ppm, neutral pH; for inhibition at 1 ppm: 10 min
Description: The photosynthetic efficiency is determined with the following formula (F2−F1)/F2. Any molecule affecting directly or indirectly the photosystems modify either F1 or F2 which modification necessarily decreases the photosynthetic efficiency. The inhibition curve of a particular molecule is determined by calculating the activity of the photosystems in the absence of the molecule and in the presence of the molecule and comparing both efficiency as follows as described in Conrad 1993:
Without Inhibitor (wi): efficiency(wi)=(F2(wi)−F1(wi)/F2(wi) With Inhibitor: Relative photosynthetic efficiency(sample)=(F2(sample)−F1(sample))/F2(wi) Percentage Efficiency: efficiency (%)=(efficiency(sample)×100)/efficiency(wi) Percentage Inhibition: Inhibition (%)=100−efficiency (%)
An Anabaena sp. culture was prepared as described in Example 3 above. As indicated in Example 3, the cyanobacteria were reactivated before testing under ambient light and at room temperature during 60 minutes.
The culture was then incubated with bioactive molecules listed in Table 1 below at concentrations of 1 ppm (except for atrazine which was used at a concentration of 1 ppb) for 10 minutes under ambient light followed by 10 minutes under green light and neutral pH. The cellular concentration was 1.0×10^7 cells/mL (100 μL of cyanobacteria within 2 mL of bioactive agent containing aqueous solution (i.e. distilled water)). Testing was performed in triplicates. The fluorescence emitted by each formulation was then measured with Luminotox™ a fluorometer that measures photosynthetic activity.

Dunaliella tertiolecta [7] = experiment: Progesterone detection with Dunaliella tertiolecta, green light versus white light then green light; conditions: 0.25 h, 15 min green light only, 350 000 cells/mL, read-out: Maximum percentage inhibition
Description: as §5
The formulation was then incubated with progesterone at concentrations of 0; 0.05; […] or 1 ppm for 15 minutes under green light only or for 15 minutes under ambient light followed by 5 to 35 minutes under green light. The cellular concentration was 350 000 cells/mL (500 μL of algae within 2 mL of progesterone containing aqueous solution (i.e. distilled water)). Testing was performed in triplicates. The fluorescence emitted by each formulation was then measured with Luminotox™, a fluorometer that measures photosynthetic activity.

Chlorella vulgaris [8] = experiment: Effect of pH on detection of ammoniacal nitrogen with Chlorella vulgaris; conditions: for Concentration of NH3 at which 20% inhibition was achieved: 10 min green light, room temperature
Description: A Chlorella vulgaris culture was prepared as described in Example 1 above. As indicated above, the algae were reactivated before testing during 90 minutes under ambient light and at room temperature.
The culture was then incubated with ammoniacal nitrogen for 10 minutes under green light and at room temperature. The desired pH was achieved by adding NaOH to a glycine 20 mM buffer. The cellular concentration of the algae was 5×10^6 cells/mL of solution (100 μL algae in 2 mL of ammoniacal nitrogen containing aqueous solution (i.e. distilled water)). Testing was performed in triplicates. The fluorescence emitted by each formulation was then measured with Luminotox™, a fluorometer that measures photosynthetic activity. Although the Luminotox™ was used in Examples presented herein, any fluorometer able to measure […] can be used in accordance with the present invention.

[9] = 10-15 min. exposition to ambiant light at 35° C., neutral pH (pH 7), 5×10^6 cells/mL
[10] = 1 ppm, 60 minutes of incubation, without additive
[11] = neutral pH (pH 7), 350 000 cells/mL
[12] = 10 min ambient light followed by 10 min green light
[13] = 10 min ambient light, 1.0×10^7 cells/mL
[14] = 10 min ambient light followed by 10 min green light, read-out: Inhibition obtained at 1 ppm (followed by 10 min green light)
[15] = 10 min ambient light, 1.0×10^7 cells/mL, read-out: Inhibition obtained at 1 ppm (10 min ambiant light)

## [Cd] [Cd, Cadmium]
Chlorella vulgaris [1]; [9]
  Detection threshold: 0.3 ppm
Chlorella vulgaris [2]; 1 ppm alone, 15 minutes of incubation
  Detection: not detected
Chlorella vulgaris [2]; [10]
  Detection: detected although weakly
Chlorella vulgaris [3]; 0.5 ppm, up to 120 minutes of incubation
  F2 fluorescence over time: stable
Chlorella vulgaris [3]; 1 ppm, after 120 minutes of incubation
  F2 fluorescence over time: decrease of fluorescence

## [Cr] [Cr, Chrome]
Chlorella vulgaris [2]; 0.1 ppm, 60 minutes of incubation, without additive
  Detection: detected although weakly

## [Cu] [Cu, Copper]
Chlorella vulgaris [1]; [9]
  Detection threshold: 0.25 ppm
Chlorella vulgaris [2]; 0.25 ppm, 60 minutes of incubation, without additives
  Detection: not detected
Chlorella vulgaris [2]; 15 minutes of incubation, cadmium 1 ppm as additive
  Inhibition: 30%
Chlorella vulgaris [2]; 15 minutes of incubation, without additive, ambient light 35° C.
  Inhibition: 15%
Chlorella vulgaris [3]; 0.1 ppm, up to 120 minutes of incubation
  F2 fluorescence over time: stable
Chlorella vulgaris [3]; 0.25 ppm, up to 120 minutes of incubation
  F2 fluorescence over time: stable
Chlorella vulgaris [4]
  Fluorescence emission: inhibited

## CN(C)C(=O)Nc1ccc(Cl)c(Cl)c1 [Diuron]
Chlorella vulgaris [1]; [9]
  Detection threshold: 0.006 ppm
Chlorella vulgaris [1]; 10-15 min. green light exposition at room temperature, neutral pH (pH 7), 5×10^6 cells/mL
  Detection threshold: <0.0005 ppm
Chlorella vulgaris [1]; 10-15 min. green light exposition at room temperature, neutral pH (pH 7), 5×10^6 cells/mL, listed as diuron
  Detection threshold: lower than 0.0005 ppm
Dunaliella tertiolecta [5]; [11]
  Detection threshold: 0.002 ppm

## [Pb] [Pb, Lead]
Chlorella vulgaris [1]; [9]
  Detection threshold: <0.5 ppm
Chlorella vulgaris [2]; [10]
  Detection: detected although weakly
Chlorella vulgaris [6]; 15 minutes of incubation, with mixtures of additives
  Concentration of lead detected: 1 ppm
Chlorella vulgaris [6]; 30 minutes of incubation, mixture Cu 0.1 ppm+Cd 1 ppm
  Concentration of lead detected: 0.1 ppm
Chlorella vulgaris [6]; 60 minutes of incubation, all additive mixtures
  Concentration of lead whose detection was increased: ≥ 0.1 ppm
Chlorella vulgaris [6]; 120 minutes of incubation, additive mixtures Cu 0.1 ppm+Cd 0.5 ppm and Cu 0.25 ppm+Cd 1 ppm
  Concentration of lead detected: 0.01 ppm

## CNC(=O)O/N=C/C(C)(C)SC [aldicarbe]
Anabaena sp.; [12]
  Inhibition obtained at 1 ppm (followed by 10 min green light): 30%
Anabaena sp.; [13]
  Inhibition obtained at 1 ppm (10 min ambiant light): 0%

## CC(C)N1C(=O)c2ccccc2NS1(=O)=O [bentazone]
Anabaena sp.; [14]
  inhibition at 1 ppm: 28%
Anabaena sp.; [15]
  inhibition at 1 ppm: 0%

## CCOP(=S)(OCC)Oc1nc(Cl)c(Cl)cc1Cl [chlorpyrifos]
Anabaena sp.; [14]
  inhibition at 1 ppm: 10%
Anabaena sp.; [15]
  inhibition at 1 ppm: 0%
Chlorella vulgaris [1]; [9]
  Detection threshold: 1 ppm
Dunaliella tertiolecta [5]; [11]
  Detection threshold: 1 ppm

## COP(=O)(OC)O/C(C)=C/C(=O)N(C)C [dicrotophos]
Anabaena sp.; [14]
  inhibition at 1 ppm: 17%
Anabaena sp.; [15]
  inhibition at 1 ppm: 2%
Dunaliella tertiolecta [5]; [11]
  Detection threshold: 235 ppm

## O=C(O)CNCP(=O)(O)O [glyphosate]
Anabaena sp.; [14]
  inhibition at 1 ppm: 7%
Anabaena sp.; [15]
  inhibition at 1 ppm: 0%
Chlorella vulgaris [1]; [9]
  Detection threshold: 100 ppm
Dunaliella tertiolecta [5]; [11]
  Detection threshold: 50 ppm

## CCOC(=O)CC(SP(=S)(OC)OC)C(=O)OCC (stereo not shown) [malathion]
Anabaena sp.; [14]
  inhibition at 1 ppm: 17%
Anabaena sp.; [15]
  inhibition at 1 ppm: 0%
Dunaliella tertiolecta [5]; [11]
  Detection threshold: 50 ppm

## CCc1cccc(C)c1N(C(=O)CCl)C(C)COC (stereo not shown) [metolachlor]
Anabaena sp.; [14]
  inhibition at 1 ppm: 22%
Anabaena sp.; [15]
  inhibition at 1 ppm: 0%

## [Ni] [nickel]
Chlorella vulgaris [2]; 1 ppm, 120 minutes of incubation
  Detection: weakly detected

## CC(=O)[C@H]1CC[C@H]2[C@@H]3CCC4=CC(=O)CC[C@]4(C)[C@H]3CC[C@]12C [progesterone]
Dunaliella tertiolecta [7]
  inhibition at 1 ppm: 40%
Chlorella vulgaris [4]
  Fluorescence emission: inhibited

## Ammonia nitrogen
Chlorella vulgaris [1]; pH 11, 10-15 min. exposition to ambiant light at 35° C.
  Detection threshold: 1 ppm at pH 11
Chlorella vulgaris [1]; pH 11, 10-15 min. green light exposition at room temperature
  Detection threshold: 1 ppm at pH 11
Dunaliella tertiolecta [5]; pH 11
  Detection threshold: 1 ppm at pH 11
Chlorella vulgaris [8]; neutral pH
  Concentration at which the compound is detected: 100 ppm
Chlorella vulgaris [8]; pH 7
  Concentration of NH3 at which 20% inhibition was achieved: 100 ppm
Chlorella vulgaris [8]; pH 9
  Concentration of NH3 at which 20% inhibition was achieved: 5 ppm
Chlorella vulgaris [8]; pH 11
  Concentration of NH3 at which 20% inhibition was achieved: lower than 2 ppm
Chlorella vulgaris [8]; pH 12
  Concentration of NH3 at which 20% inhibition was achieved: lower than 2 ppm
Chlorella vulgaris [8]; pH up to 11
  Detection threshold: 1 ppm

## Mercury [Hg]
Chlorella vulgaris [1]; [9]
  Detection threshold: 0.22 ppm

## cyanure
Anabaena sp.; [12]
  Inhibition obtained at 1 ppm (followed by 10 min green light): 16%
Anabaena sp.; [13]
  Inhibition obtained at 1 ppm (10 min ambiant light): 0%
Chlorella vulgaris [1]; [9]
  Detection threshold: 0.16 ppm

## gramicidine
Anabaena sp.; [12]
  Inhibition obtained at 1 ppm (followed by 10 min green light): 15%
Anabaena sp.; [13]
  Inhibition obtained at 1 ppm (10 min ambiant light): 0%

Reference: patent US8652799B2, “Method of detecting bioactive molecules in a fluid sample” (priority 2008, dated 2014)
